Reference: PubChem BioAssay (NCI)
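48-hour exposure; five concentrations; linearly interpolated endpoints. Definition used: TGI = concentration required for complete inhibition of growth.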

What was measured:
Assay in all cases: growth of human tumour cells (NCI), 48 h
[1] = system: SNB-19 CNS
[2] = system: TK-10 renal
[3] = system: U251 CNS
[4] = system: EKVX NSCLC
[5] = system: IGROV1 ovarian
[6] = system: RXF 393 renal
[7] = system: HCT-116 colon
[8] = system: UO-31 renal
[9] = system: SN12C renal
[10] = system: CCRF-CEM leukemia
[11] = system: A549 NSCLC
[12] = system: KM12 colon
[13] = system: HOP-92 NSCLC
[14] = system: A498 renal
[15] = system: MOLT-4 leukemia
[16] = system: SNB-75 CNS
[17] = system: HOP-62 NSCLC
[18] = system: SK-MEL-2 melanoma
[19] = system: DMS 114 small cell lung
[20] = system: MALME-3M melanoma
[21] = system: COLO 205 colon
[22] = system: HL-60(TB) leukemia
[23] = system: SK-MEL-28 melanoma
[24] = system: XF 498 CNS
[25] = system: CAKI-1 renal
[26] = system: UACC-62 melanoma
[27] = system: NCI-H226 lung
[28] = system: SK-OV-3 ovarian
[29] = system: K-562 leukemia
[30] = system: DLD-1 colon
[31] = system: HT29 colon
[32] = system: HOP-18 NSCLC
[33] = system: LOX IMVI melanoma
[34] = system: NCI-H522 lung
[35] = system: OVCAR-5 ovarian
[36] = system: NCI-H460 lung
[37] = system: OVCAR-3 ovarian
[38] = system: SF-295 CNS
[39] = system: DMS 273 small cell lung
[40] = system: LXFL 529 NSCLC
[41] = system: SF-539 CNS
[42] = system: SNB-78 CNS
[43] = system: UACC-257 melanoma
[44] = system: SW-620 colon
[45] = system: HCC-2998 colon
[46] = system: M14 melanoma
[47] = system: OVCAR-8 ovarian
[48] = system: 786-0 renal
[49] = system: KM20L2 colon
[50] = system: HCT-15 colon
[51] = system: OVCAR-4 ovarian
[52] = system: ACHN renal
[53] = system: SF-268 CNS
[54] = system: SK-MEL-5 melanoma
[55] = system: M19-MEL melanoma
[56] = system: NCI-H23 lung
[57] = system: SR leukemia
[58] = system: RPMI-8226 leukemia

Measured: TGI

CC1(O)C(C)(O)C(C)(O)C1(C)O (stereo not drawn)
not listed: [57] | [58]
> 100 µM: all other assays above

COC(=O)C(/C(=N/NC(N)=O)C(=O)Nc1c(C)cccc1C(C)(C)C)c1nc2ccc(Cl)cc2[nH]c1=O (stereo not drawn)
not listed: [21]
> 100 µM: all other assays above
